Patent publication US20050228180A1, “Alpha, omega-dicarboximide derivatives as useful uro-selective a1a adrenoceptor blockers” (priority 2002, published 2005)
Structures can show the parent of a compound that is named as a salt.

Legend:
[1] = molecular target: T1, α1B adrenoceptor (Rattus norvegicus, UniProt P15823); test: Radioligand binding, [3H] prazosin displacement, rat liver membranes; conditions: read-out: Affinity (Ki) α1B (Rat Liver)
T1 construct: from tissue; host or cells: rat liver membranes
T1 sequence (P15823 1-515): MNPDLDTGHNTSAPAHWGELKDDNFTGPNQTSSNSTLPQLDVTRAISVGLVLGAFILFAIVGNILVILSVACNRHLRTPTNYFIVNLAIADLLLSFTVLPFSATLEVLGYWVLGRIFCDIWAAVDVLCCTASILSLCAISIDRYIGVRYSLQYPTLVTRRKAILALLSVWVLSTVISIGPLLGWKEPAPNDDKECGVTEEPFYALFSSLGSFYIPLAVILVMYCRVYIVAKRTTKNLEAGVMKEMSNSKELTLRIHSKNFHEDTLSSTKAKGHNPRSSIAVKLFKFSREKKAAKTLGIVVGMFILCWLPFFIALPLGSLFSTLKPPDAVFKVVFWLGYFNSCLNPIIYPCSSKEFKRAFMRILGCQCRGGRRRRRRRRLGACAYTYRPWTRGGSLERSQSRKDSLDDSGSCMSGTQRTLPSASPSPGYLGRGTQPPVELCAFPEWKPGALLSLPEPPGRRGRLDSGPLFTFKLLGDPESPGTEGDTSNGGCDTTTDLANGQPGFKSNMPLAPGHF
Summary of the method: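 Displacement of [3H]prazosin measured by filtration and counting, with Ki from IC50 via Cheng–Prusoff and nonspecific binding set by 300 nM prazosin. Native rat submaxillary (α1A) or liver (α1B) membranes, 150-250 μg protein, 1 h at 24-25° C in Tris/EDTA pH 7.4.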

[2] = molecular target: T2, α1A adrenoceptor (prostate) (Rattus norvegicus, UniProt P43140); test: In vitro functional assay, isolated prostate, phenylepinephrine contraction; assay type: cell-based
T2 construct: from tissue; host or cells: isolated prostate tissue
T2 sequence (P43140 1-466): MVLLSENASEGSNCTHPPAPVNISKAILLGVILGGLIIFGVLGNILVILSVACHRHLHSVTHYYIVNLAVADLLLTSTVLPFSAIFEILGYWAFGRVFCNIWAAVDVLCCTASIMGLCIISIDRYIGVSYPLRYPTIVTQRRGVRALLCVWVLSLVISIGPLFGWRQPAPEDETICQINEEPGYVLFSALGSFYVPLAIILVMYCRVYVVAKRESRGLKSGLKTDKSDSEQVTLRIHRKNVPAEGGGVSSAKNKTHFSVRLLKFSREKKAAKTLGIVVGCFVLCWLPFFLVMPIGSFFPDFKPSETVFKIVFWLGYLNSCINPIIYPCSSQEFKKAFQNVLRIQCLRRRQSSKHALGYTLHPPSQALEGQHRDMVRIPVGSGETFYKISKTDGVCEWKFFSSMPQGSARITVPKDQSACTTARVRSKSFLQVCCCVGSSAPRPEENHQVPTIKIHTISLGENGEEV
Summary of the method: (§1)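 Rat aorta, spleen and prostate strips from urethane-anaesthetised male Wistar rats in Krebs-Henseleit at 37 °C (95% O2/5% CO2), 2 g or 1 g resting tension, 2 h equilibration. Norepinephrine (aorta) or phenylephrine (spleen, prostate) contraction curves run without and with compound at […]; antagonist affinity given as pKB.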

[3] = molecular target: T3, α1B adrenoceptor (spleen) (Rattus norvegicus, UniProt P15823); test: In vitro functional assay, isolated spleen, phenylepinephrine contraction; assay type: cell-based; conditions: read-out: α Adrenoceptor Subtype (pKB) α1B (converted)
T3 construct: Isolated tissues were mounted in organ bath containing Krebs Henseleit buffer; from tissue; host or cells: isolated rat spleen
T3 sequence (P15823 1-515): T1 sequence (P15823 1-515)
Summary of the method: as §1

Ki [1]: 127 nM | Selectivity α1B/α1A ([2]; functional, from pKB): 5 | Selectivity α1D/α1A ([2]; functional, from pKB): 5.6 | Kb ([2]; rat prostate, phenylepinephrine, read-out: α Adrenoceptor Subtype (pKB) α1A (converted)): 1.48 nM | Kb [3]: 7.41 nM
Compound: CC(C)Oc1ccccc1N1CCN(CCCN2C(=O)C3CC(O)C(O)CC3C2=O)CC1 (centres unmarked) [Compound No. 23, 2-[3-{4-(2-Isopropoxyphenyl)piperazin-1-yl}propyl]-5,6-dihydroxy-3a,4,5,6,7,7a, hexahydro-1H-isoindole-1,3(2H)-dione-hydrochloride]
